Data set [1] has as its target T1, mitochondrial benzodiazepine receptor (MBR) (Rattus norvegicus, UniProt P16257).
T1 construct: from tissue; host or cells: kidney of male Wistar rats (crude membrane preparation)
The experiment in a line: Binding assay of mitochondrial benzodiazepine receptor (MBR), [3H]4'-chlorodiazepam (Ro5-4864), rat kidney membrane-preparation. Conditions: rat kidney membranes, [3H]4'-chlorodiazepam 0.5 nM, 0° C. for 150 minutes. How it is done: The binding assay of central-type benzodiazepine receptor (CBR) and the preparation of receptor membrane-preparation were carried out according to the partially modified method of Braestrup, C. et al. [see; Br. J. Psychiatry, 133, 249-260 (1978)] with a minor modification; the binding assay of mitochondrial benzodiazepine receptor (MBR) and the preparation of receptor membrane-preparation were carried out according to the method of Schoemaker, H [see; J. Pharmacol. Exp. Ther., 225, 61-69 (1983)] with a minor modification.
CBR and MBR membrane-preparations were prepared from forebrain (CBR) and kidney (MBR) of male Wistar strain rats according to the following procedure, respectively.
To the forebrain of rat, 20 volumes of ice-cold 0.32 M sucrose solution to wet-weight of the tissue (1:20, wet-weight/vol) was added and homogenized, and then the homogenate was centrifuged at 900×g for 10 minutes. The supernatant was centrifuged at 11,500×g for 20 minutes, a buffer I for the binding assay (50 mM Tris-hydrochloric acid buffer, pH 7.5) was added to the resultant precipitate, and the mixture was homogenized, and then it was centrifuged at 30,000×g for 10 minutes. The resulting precipitate was washed 3 times according to the same operation, suspended in the buffer I (1 g of wet-weight of tissue/10 ml) and used as a CBR membrane-preparation for the binding assay. The CBR membrane-preparation was stored at −80° C. until use, and on the day of the assay, it was thawed and suspended in the buffer for use. On the other hand, kidney of rat was homogenized in 20 volumes of ice-cold buffer II for the binding assay to wet-weight of the tissue (1:20, wet-weight/vol) (50 mM sodium phosphate-potassium phosphate buffer solution containing 100 mM sodium chloride, pH 7.4), and then filtrated through 4 layers of gauze, and the filtrate was centrifuged at 40,000×g for 20 minutes. The resulting precipitate was suspended in the buffer II (1 g of wet-weight of tissue/50 ml) and used as a MBR membrane-preparation for the binding assay.
As a labeled ligand and a non-labeled ligand, [^3H]flunitrazepam (final concentration: 1 nM) and diazepam (final concentration: 20 μM) were used respectively, for the CBR binding assay, and [^3H]4′-chlorodiazepam (Ro5-4864, chemical name: 7-chloro-1,3-dihydro-1-methyl-5-(4-chloro-phenyl)-2H-1,4-[…]) (final concentration: 0.5 nM) and diazepam (final concentration: 50 μM) were used respectively, for the MBR binding assay. The binding assay of CBR was carried out by incubating at 0° C. for 30 minutes, while that of MBR was at 0° C. for 150 minutes.
The receptor binding assay was carried out in the following procedure. The test compound which the concentration was known, a tritium labeled ligand, a receptor membrane-preparation and the buffer I or II for the binding assay were added to a 96-well microplate in the total volume was 0.2 ml, and when the receptor membrane-preparation was added, the reaction started. After the incubation, the labeled ligand binding to the receptor was filtrated through a filter plate (UNI FILTER-96GF/B, PerkinElmer, the U.S.) using a cell harvester (PerkinElmer, the U.S.) to stop the reaction. The filter was immediately washed 6 times with 0.3 ml of the ice-cold buffer [50 mM Tris-hydrochloric acid buffer (pH 7.7)]. After 30 μl of liquid scintillation cocktail (MICROSCINTI 20, PerkinElmer, the U.S.) was added to each well on the dried filter plate, the radioactivity was measured with a TopCount. The specific binding amount was obtained by subtracting the non-specific binding amount which was simultaneously measured in the presence of non-labeled ligand from the total binding amount. The concentration that the test compound could decrease the specific binding amount of the labeled ligand to 50% of the amount (IC50 value) was analyzed using nonlinear least-squares method.

pIC50: −log10 of the molar value.

As a reminder, the pIC50 is the IC50 on a negative log10 scale, so that one unit is a factor of ten. The low end stands for a large IC50, the high end for a small IC50. Compound `C[C@H]1CCCN(C(=O)C2Cc3cc(O)ccc3N2c2ccc(=O)n(C)n2)C1` (stereo partly drawn) [Example 136, 5-hydroxy-1-(1-methyl-6-oxo-1,6-dihydropyridazin-3-yl)-2-[[(S)-3-methylpiperidin-1-yl]carbonyl]indoline] showed a pIC50 in data set [1] of 7.17.
Usually melting point stands for the temperature of the solid-liquid transition. `Cn1nc(N2c3ccccc3C[C@H]2C(=O)N2CCCCCCC2)ccc1=O` (hydrate or solvate) [Example 119, (S)-1-(1-methyl-6-oxo-1,6-dihydropyridazin-3-yl)-2-[(1-perhydroazocinyl)carbonyl]indoline] showed a melting point of 179 to 182 °C.
For `CC1CCCN(C(=O)[C@H]2[C@@H](O)c3ccccc3N2c2ccc(=O)n(C)n2)C1` (relative stereo) [Example 159, cis-3-hydroxy-1-(1-methyl-6-oxo-1,6-dihydropyridazin-3-yl)-2-[(3-methylpiperidin-1-yl)carbonyl]-indoline], the pIC50 in data set [1] was 7.21.
Take `CCCC1CCCN(C(=O)[C@@H]2Cc3ccccc3N2c2ccc(=O)n(C)n2)C1` (stereo partly drawn) [Example 147, (S)-1-(1-methyl-6-oxo-1,6-dihydropyridazin-3-yl)-2-[(3-propylpiperidin-1-yl)carbonyl]indoline]: the pIC50 in data set [1] was 8.42.
The same measure, in the same setting: the result for `Cn1nc(N2c3ccccc3C[C@H]2C(=O)N2CCCC(C)(C)C2)ccc1=O` [Example 152, (S)-2-[(3,3-dimethylpiperidin-1-yl)carbonyl]-1-(1-methyl-6-oxo-1,6-dihydropyridazin-3-yl)indoline] reads 8.14.
Still for that read-out and setting: next, `C[C@H]1CCCN(C(=O)[C@@H]2Cc3ccccc3N2c2ccc(=O)n(C3CCCC3)n2)C1` [Example 126]: 8.57; `CC1c2ccccc2N(c2ccc(=O)n(C)n2)C1C(=O)N1CCC[C@H](C)C1` (stereo partly drawn) [Example 141, 3-methyl-1-(1-methyl-6-oxo-1,6-dihydropyridazin-3-yl)-2-[[(S)-3-methylpiperidin-1-yl]carbonyl]indoline]: 7.91; `CC1CCCCN(C(=O)[C@@H]2Cc3ccccc3N2c2ccc(=O)n(C)n2)C1` (stereo partly drawn) [Example 150, (S)-1-(1-methyl-6-oxo-1,6-dihydropyridazin-3-yl)-2-[(3-methylperhydroazepin-1-yl)carbonyl]indoline]: 8.27.
The compound `Cn1nc(N2c3ccccc3CC2C(=O)N2CCCC(C(F)(F)F)C2)ccc1=O` (stereo not shown) [Example 108] gave a pIC50 in data set [1] of 7.75.
Still for that read-out and setting: next, `C[C@H]1CCCN(C(=O)[C@@H]2Cc3ccccc3N2c2ccc3nncn3n2)C1` [Example 154, (S)-2-[[(S)-3-methylpiperidin-1-yl]carbonyl]-1-(1,2,4-triazolo[4,3-b]pyridazin-6-yl)indoline]: 8.30; `C[C@@H]1C[C@H](C)CN(C(=O)[C@@H]2Cc3ccccc3N2c2cccnc2)C1` [Example 33]: 8.70; `C[C@H]1CCCN(C(=O)[C@@H]2Cc3ccccc3N2c2ccc(=O)n(CC3CCC3)n2)C1` [Example 125]: 8.88.
On the same count and under the same terms, next, `C[C@H]1CCCN(C(=O)C2Cc3c(F)cccc3N2c2ccc(=O)n(C)n2)C1` (single isomer, unassigned) [Example 155b]: 8.06.
Still for that read-out and setting: next, `C[C@H]1CCCN(C(=O)[C@@H]2Cc3ccccc3N2c2ccc(=O)n(CC(=O)c3ccccc3)n2)C1` [Example 124]: 8.62.
In turn, `CCc1ccc2c(c1)C[C@@H](C(=O)N1CCC[C@H](C)C1)N2c1cccnn1` [Example 105, (S)-5-ethyl-2-[(S)-3-methylpiperidin-1-yl]-carbonyl-1-(3-pyridazinyl)indoline] showed a pIC50 in data set [1] of 7.09.
Regarding `CC1CCN(C(=O)[C@@H]2Cc3ccccc3N2c2ccc(=O)n(C)n2)C1` (stereo partly drawn) [Example 148, (S)-1-(1-methyl-6-oxo-1,6-dihydropyridazin-3-yl)-2-[(3-methylpyrrolidin-1-yl)carbonyl]indoline], the pIC50 in data set [1] is 7.35.
The same measure, in the same setting: next, `Cn1nc(N2c3ccccc3C[C@H]2C(=O)N2CCCCCCC2)ccc1=O` [Example 119, (S)-1-(1-methyl-6-oxo-1,6-dihydropyridazin-3-yl)-2-[(1-perhydroazocinyl)carbonyl]indoline]: 8.40; `C[C@@H]1C[C@H](C)CN(C(=O)[C@@H]2Cc3ccccc3N2c2ncccc2N)C1` [Example 55, (S)-1-(3-aminopyridin-2-yl)-2-[(cis-3,5-dimethylpiperidin-1-yl)carbonyl]indoline]: 7.26.
In data set [1], `CCC(C)n1nc(N2c3ccccc3CC2C(=O)N2CCCC(C)C2)ccc1=O` (stereo not shown) [Example 76] gave a pIC50 of 8.52.
On the same count and under the same terms, the result for `Cn1nc(N2c3cccc(F)c3CC2C(=O)N2CCCCCC2)ccc1=O` (stereo not shown) [Example 156, 4-fluoro-1-(1-methyl-6-oxo-1,6-dihydropyridazin-3-yl)-2-[(1-perhydroazepinyl)carbonyl]indoline] reads 8.56; that for `C[C@H]1CCCN(C(=O)C2Cc3c(F)cccc3N2c2ccc(=O)n(C)n2)C1` (single isomer, unassigned) [Example 155a], 8.36.
The same measure, in the same setting: next, `C[C@H]1CCCN(C(=O)[C@@H]2Cc3ccccc3N2c2nccs2)C1` [Example 153, (S)-2-[(S)-3-methylpiperidin-1-yl]carbonyl-1-(1,3-thiazol-2-yl)indoline]: 8.95; `CCC1CCCN(C(=O)[C@@H]2Cc3ccccc3N2c2ccc(=O)n(C)n2)C1` (stereo partly drawn) [Example 146, (S)-2-[(3-ethylpiperidin-1-yl)carbonyl]-1-(1-methyl-6-oxo-1,6-dihydropyridazin-3-yl)indoline]: 8.31.
In data set [1], `CC1CCCCN1C(=O)[C@@H]1Cc2ccccc2N1c1ccc(=O)n(C)n1` (stereo partly drawn) [Example 145, (S)-1-(1-methyl-6-oxo-1,6-dihydropyridazin-3-yl)-2-[(2-methylpiperidin-1-yl)carbonyl]indoline] had a pIC50 of 7.51.
On to `Cn1nc(N2c3cc(F)ccc3CC2C(=O)N2CCCCCC2)ccc1=O` (stereo not shown) [Example 158, 6-fluoro-1-(1-methyl-6-oxo-1,6-dihydropyridazin-3-yl)-2-[(1-perhydroazepinyl)carbonyl]indoline], for which the negative-log IC50 (pIC50) in data set [1] is 7.55.
On the same count and under the same terms, the result for `Cn1nc(N2c3ccccc3C[C@H]2C(=O)N2CCCCCC2)ccc1=O` [Example 118, (S)-1-(1-methyl-6-oxo-1,6-dihydropyridazin-3-yl)-2-[(1-perhydroazepinyl)carbonyl]indoline] reads 8.37; that for `CCC1CCCCN(C(=O)[C@@H]2Cc3ccccc3N2c2ccc(=O)n(C)n2)C1` (stereo partly drawn) [Example 151, (S)-2-[(3-ethylperhydroazepin-1-yl)carbonyl]-1-(1-methyl-6-oxo-1,6-dihydropyridazin-3-yl)indoline], 8.44; that for `C[C@H]1CCCN(C(=O)[C@@H]2Cc3ccccc3N2c2ccc(=S)n(C)n2)C1` [Example 139, (S)-2-[[(S)-3-methylpiperidin-1-yl]carbonyl]-1-(1-methyl-6-thioxo-1,6-dihydropyridazin-3-yl)indoline], 8.15.
On to `C[C@H]1CCCN(C(=O)[C@@H]2Cc3ccccc3N2c2ccc(=O)[nH]n2)C1` [Example 143, (S)-2-[[(S)-3-methylpiperidin-1-yl]carbonyl]-1-(6-oxo-1,6-dihydropyridazin-3-yl)indoline], for which, in data set [1], the pIC50 is 8.06.
On the same count and under the same terms, the result for `CCC1CCN(C(=O)[C@@H]2Cc3ccccc3N2c2ccc(=O)n(C)n2)C1` (stereo partly drawn) [Example 149, (S)-2-[(3-ethylpyrrolidin-1-yl)carbonyl]-1-(1-methyl-6-oxo-1,6-dihydropyridazin-3-yl)indoline] reads 8.27; that for `CC1c2ccccc2N(c2ccc(Cl)nn2)C1C(=O)N1CCC[C@H](C)C1` (stereo partly drawn) [Example 140, 1-(6-chloropyridazin-3-yl)-3-methyl-2-[[(S)-3-methylpiperidin-1-yl]carbonyl]indoline], 8.42.

For the origin of these results see US20080221114A1, “2-(Cyclic Aminocarbonyl) Indoline Derivative and Medicinal Composition Containing the Same” (priority 2005, published 2008).
